Target: SARS-CoV-2 3CLpro (Severe acute respiratory syndrome coronavirus 2, UniProt P0DTD1)
Assay: biochemical
Conditions: inhibition of SARS-CoV-2 3CLpro; 15 nM 3CLpro, 25 μM fluorogenic substrate, 37° C.; read-out: Inhibitory Activity (IC50)

Compound | IC50
CNC(=O)c1cc(Br)cc([N+](=O)[O-])c1N[C@H]1CN(C(=O)c2cccnc2C#N)CCC1(F)F [Compound 114, (S)-5-bromo-2-((1-(2-cyanonicotinoyl)-4,4-difluoropiperidin-3-yl)amino)-N-methyl-3-nitrobenzamide] | 1000 to 10000 nM
O=C(N[C@@H]1CCOC1)c1cc(Br)cc(C(F)(F)F)c1N[C@H]1CN(C(=O)c2cncc3ccccc23)CCC1(F)F [Compound 182, 5-bromo-2-(((S)-4,4-difluoro-1-(isoquinoline-4-carbonyl)piperidin-3-yl)amino)-N-((R)-tetrahydrofuran-3-yl)-3-(trifluoromethyl)benzamide] | < 100 nM
CNC(=O)c1cc(Br)cc(C(F)(F)F)c1N[C@H]1CN(C(=O)c2cncc3ccccc23)CC[C@@H]1F [Compound 183, 5-bromo-2-(((3S, 4S)-4-fluoro-1-(isoquinoline-4-carbonyl)piperidin-3-yl)amino)-N-methyl-3-(trifluoromethyl)benzamide] | < 100 nM
CNC(=O)c1cc(Br)cc([N+](=O)[O-])c1N[C@H]1CN(C(=O)c2cncc3ccccc23)CC[C@@H]1F [Compound 87, 5-bromo-2-(((3S, 4S)-4-fluoro-1-(isoquinoline-4-carbonyl)piperidin-3-yl)amino)-N-methyl-3-nitrobenzamide] | < 100 nM
O=C(NC1CC(F)(F)C1)c1cc(Br)cc([N+](=O)[O-])c1N1CCC2(CCN(C(=O)c3cncnc3)C2)C1 (stereo not drawn) [Compound 115, 5-bromo-N-(3,3-difluorocyclobutyl)-3-nitro-2-(7-(pyrimidine-5-carbonyl)-2,7-diazaspiro[4.4]nonan-2-yl)benzamide] | ≥ 10000 nM
CNC(=O)c1cc(Br)cc(C(F)(F)F)c1N[C@H]1CN(C(=O)c2cncc3ccccc23)CC[C@H]1F [Compound 181, 5-bromo-2-(((3S,4R)-4-fluoro-1-(isoquinoline-4-carbonyl)piperidin-3-yl)amino)-N-methyl-3-(trifluoromethyl)benzamide] | < 100 nM
O=C(O)c1cc(Br)cc([N+](=O)[O-])c1N[C@H]1CN(C(=O)c2cncc3ccccc23)CCC1(F)F [Compound 153, (S)-5-bromo-2-((4,4-difluoro-1-(isoquinoline-4-carbonyl)piperidin-3-yl)amino)-3-nitrobenzoic acid] | 100 to 1000 nM
O=C(c1cc(Br)cc(C(F)(F)F)c1N[C@H]1CN(C(=O)c2cncc3ccccc23)CCC1(F)F)N1CC(O)C1 [Compound 173, (S)-(5-bromo-2-((4,4-difluoro-1-(isoquinoline-4-carbonyl)piperidin-3-yl)amino)-3-(trifluoromethyl)phenyl)(3-hydroxyazetidin-1-yl)methanone] | < 100 nM
Cc1c(F)cncc1C(=O)N1CCC2(CCN(c3c(C(=O)NC4CC(F)(F)C4)cc(Br)cc3[N+](=O)[O-])C2)C1 (stereo not drawn) [Compound 76, 5-bromo-N-(3,3-difluorocyclobutyl)-2-(7-(5-fluoro-4-methylnicotinoyl)-2,7-diazaspiro[4.4]nonan-2-yl)-3-nitrobenzamide] | 1000 to 10000 nM
O=C(N[C@H]1CCOC1)c1cc(Br)cc(C(F)(F)F)c1N[C@H]1CN(C(=O)c2cncc3cccnc23)CCC1(F)F [Compound 109, 5-bromo-2-(((S)-4,4-difluoro-1-(1,6-naphthyridine-8-carbonyl)piperidin-3-yl)amino)-N-((S)-tetrahydrofuran-3-y1)-3-(trifluoromethyl)benzamide] | < 100 nM
CNC(=O)c1cc(Cl)cc([N+](=O)[O-])c1N[C@H]1CN(C(=O)c2cncc3ncn(C)c23)CCC1(F)F [Compound 105, (S)-5-chloro-2-((4,4-difluoro-1-(1-methyl-1H-imidazo[4,5-c]pyridine-7-carbonyl)piperidin-3-yl)amino)-N-methyl-3-nitrobenzamide] | < 100 nM
CNC(=O)c1cc(Br)cc([N+](=O)[O-])c1O[C@@H]1CCCC[C@@H]1NC(=O)c1cncc2ccccc12 [Compound 102, N-[(1S,2R)-2-[4-bromo-2-(methylcarbamoyl)-6-nitro-phenoxy]cyclohexyl]isoquinoline-4-carboxamide] | < 100 nM
C[C@@H](NC(=O)c1cc(Br)cc([N+](=O)[O-])c1N[C@@H]1COCC[C@@H]1NC(=O)c1cncc2ccccc12)C(F)(F)F [Compound 136, N-((3S, 4S)-3-((4-bromo-2-nitro-6-(((R)-1,1,1-trifluoropropan-2-yl)carbamoyl)phenyl)amino)tetrahydro-2H-pyran-4-yl)isoquinoline-4-carboxamide] | 100 to 1000 nM
CNC(=O)c1cc(Br)cc([N+](=O)[O-])c1N1CCC2(CN(C(=O)c3cncc4ccccc34)C2)C1 [Compound 10, 5-bromo-2-(2-(isoquinoline-4-carbonyl)-2,6-diazaspiro[3, 4]octan-6-yl)-N-methyl-3-nitrobenzamide] | ≥ 10000 nM
Cc1c(Cl)cncc1C(=O)N1CCC2(CCN(c3c(C(=O)NC4CC(F)(F)C4)cc(Br)cc3[N+](=O)[O-])C2)C1 (stereo not drawn) [Compound 24, 5-bromo-2-(7-(5-chloro-4-methylnicotinoyl)-2,7-diazaspiro[4.4]nonan-2-yl)-N-(3,3-difluorocyclobutyl)-3-nitrobenzamide] | 1000 to 10000 nM
CC(C)C(Nc1c(-c2ncco2)cc(Br)cc1[N+](=O)[O-])C1CN(C(=O)c2cncc3ccccc23)C1 (stereo not drawn) [Compound 65, (3-(1-((4-bromo-2-nitro-6-(oxazol-2-yl)phenyl)amino)-2-methylpropyl)azetidin-1-yl)(isoquinolin-4-yl)methanone] | 1000 to 10000 nM
O=C(NC1CC(F)(F)C1)c1cc(Br)cc([N+](=O)[O-])c1N[C@@H]1COC[C@@H]1NC(=O)c1cncc2ccccc12 [Compound 137, N-((3R,4S)-4-((4-bromo-2-((3,3-difluorocyclobutyl)carbamoyl)-6-nitrophenyl)amino)tetrahydrofuran-3-yl)isoquinoline-4-carboxamide] | 1000 to 10000 nM
CNC(=O)c1cc(Br)cc([N+](=O)[O-])c1O[C@@H]1CN(C(=O)c2cncc3ccccc23)CCC1(F)F [Compound 179, (R)-5-bromo-2-((4,4-difluoro-1-(isoquinoline-4-carbonyl)piperidin-3-yl)oxy)-N-methyl-3-nitrobenzamide] | 100 to 1000 nM
CNC(=O)c1cc(Cl)cc([N+](=O)[O-])c1N[C@H]1CN(C(=O)c2cncc3ccn(C)c23)CC[C@@H]1F [Compound 178, 5-chloro-2-(((3S, 4S)-4-fluoro-1-(1-methyl-1H-pyrrolo[3,2-c]pyridine-7-carbonyl)piperidin-3-yl)amino)-N-methyl-3-nitrobenzamide] | < 100 nM
COC1CN(C(=O)c2cc(Br)cc([N+](=O)[O-])c2N[C@H]2CN(C(=O)c3cncc4ccccc34)CCC2(F)F)C1 [Compound 38, (S)-(5-bromo-2-((4,4-difluoro-1-(isoquinoline-4-carbonyl)piperidin-3-yl)amino)-3-nitrophenyl)(3-methoxyazetidin-1-yl)methanone] | < 100 nM
O=C(NC1CC(F)(F)C1)c1cc(Br)cc([N+](=O)[O-])c1N[C@@H]1CCCC[C@@H]1NC(=O)c1cncc2ccccc12 [Compound 56, N-((1S, 2R)-2-((4-bromo-2-((3,3-difluorocyclobutyl)carbamoyl)-6-nitrophenyl)amino)cyclohexyl)isoquinoline-4-carboxamide] | < 100 nM
CNC(=O)c1cc(Br)cc([N+](=O)[O-])c1N[C@H]1CN(C(=O)c2cncc3ccccc23)CC[C@H]1C [Compound 141, 5-bromo-2-(((3R, 4R)-1-(isoquinoline-4-carbonyl)-4-methylpiperidin-3-yl)amino)-N-methyl-3-nitrobenzamide] | 100 to 1000 nM
CNC(=O)c1cc(Br)cc([N+](=O)[O-])c1N[C@@H]1CN(C(C)=O)CC[C@@H]1NC(=O)c1cncc2ccccc12 [Compound 90, N-((3R, 4S)-1-acetyl-3-((4-bromo-2-(methylcarbamoyl)-6-nitrophenyl)amino)piperidin-4-yl)isoquinoline-4-carboxamide] | 1000 to 10000 nM
O=C(c1cc(Br)cc([N+](=O)[O-])c1N[C@H]1CN(C(=O)c2cncc3ccccc23)CC1(F)F)N1CC(F)(F)C1 [Compound 162, (S)-(5-bromo-2-((4,4-difluoro-1-(isoquinoline-4-carbonyl)pyrrolidin-3-yl)amino)-3-nitrophenyl)(3,3-difluoroazetidin-1-yl)methanone] | < 100 nM
CNC(=O)c1cc(Br)cc([N+](=O)[O-])c1NC(C(C)C)C1CN(C(=O)c2cncnc2)C1 (stereo not drawn) [Compound 71, 5-bromo-N-methyl-2-((2-methyl-1-(1-(pyrimidine-5-carbonyl)azetidin-3-yl)propyl)amino)-3-nitrobenzamide] | 1000 to 10000 nM
O=C(NC1CC(F)(F)C1)c1cc(Br)cc([N+](=O)[O-])c1N1CCC2(CCN(C(=O)c3cncc(C(F)(F)F)c3)C2)C1 (stereo not drawn) [Compound 22, 5-bromo-N-(3,3-difluorocyclobutyl)-3-nitro-2-(7-(5-(trifluoromethyl)nicotinoyl)-2,7-diazaspiro[4.4]nonan-2-yl)benzamide] | 1000 to 10000 nM
O=C(N[C@@H]1CCNC1)c1cc(Br)cc(C(F)(F)F)c1N[C@H]1CN(C(=O)c2cncc3ccccc23)CCC1(F)F [Compound 160, 5-bromo-2-[[(3S)-4,4-difluoro-1-(isoquinoline-4-carbonyl)-3-piperidyl]amino]-N-[(3R)-pyrrolidin-3-yl]-3-(trifluoromethyl)benzamide] | < 100 nM
O=C(c1cc(Cl)cc([N+](=O)[O-])c1N[C@H]1CN(C(=O)c2cncc3cccnc23)CCC1(F)F)N1CC(O)C1 [Compound 112, (S)-(5-chloro-2-((4,4-difluoro-1-(1,6-naphthyridine-8-carbonyl)piperidin-3-yl)amino)-3-nitrophenyl)(3-hydroxyazetidin-1-yl)methanone] | < 100 nM
CNC(=O)c1cc(Br)cc([N+](=O)[O-])c1N[C@H]1CN(C(=O)c2cnnn2C)CCC1(F)F [Compound 113, (S)-5-bromo-2-((4,4-difluoro-1-(1-methyl-1H-1,2,3-triazole-5-carbonyl)piperidin-3-yl)amino)-N-methyl-3-nitrobenzamide] | ≥ 10000 nM
O=C(NC1CC(F)(F)C1)c1cc(Br)cc([N+](=O)[O-])c1N[C@H]1CN(C(=O)c2cncc3ccccc23)CC(F)(F)C1 [Compound 134, (R)-5-bromo-2-((5,5-difluoro-1-(isoquinoline-4-carbonyl)piperidin-3-yl)amino)-N-(3,3-difluorocyclobutyl)-3-nitrobenzamide] | 100 to 1000 nM

Reference: patent publication US20260315452A1, “PROTEASE INHIBITORS AND USES THEREOF” (priority 2023, published 2026)
